Data: patent publication US20070105162A1, “Monovalent avidin and streptavidin compositions” (Massachusetts Institute of Technology, priority 2005, published 2007)

Tests used:
[1] = Kd of D4 by 3H-biotin binding and protein precipitation; conditions: 24 μM D4, increasing 3H-biotin (0-500 μM), >20 hr room temperature; ± s.e.m.
Method: After incubation at room temperature for 20 hr, the protein was precipitated by adding 50 μL to 200 μL 0.2 M ZnSO4 followed by 200 μL 0.2 M NaOH. The protein precipitate was pelleted by centrifugation at 16,500 g for 5 min. The biotin bound by D4 was calculated from the total ^3H-biotin added minus the ^3H-biotin in the supernatant. The Kd was obtained using a nonlinear regression analysis (one-site binding hyperbola) with SigmaPlot (Systat Software; Point Richmond, Calif.).

[2] = test system: biotinylated AP-neuroligin-1 on hippocampal neurons; experiment: AP-neuroligin-1 clustering in hippocampal neurons labeled with streptavidin; assay type: cell-based, rat; conditions: two hour incubation at 37° C., Alexa Fluor 568 conjugate; ± s.e.m., n=9
Method: HeLa cells were grown in Dulbecco's Modified Eagle Medium (DMEM) with 10% Fetal Calf Serum, 50 U/mL penicillin and 50 μg/mL streptomycin. HeLa stably expressing AP-CFP-TM or Ala-CFP-TM have been previously described (Howarth, M. et al., Proc. Natl. Acad. Sci. USA 102: 7583-7588, 2005). Dissociated primary neuronal cultures were prepared from Embryonic Day 18 or 19 (E18/19) rats and transfected with Lipofectamine 2000 at DIV6 as in Levinson et al. (Levinson, J. N. et al., J. Biol. Chem. 280: 17312-17319, 2005). […]
Images of HeLa cells were collected on a Zeiss Axiovert 200M inverted epifluorescence microscope using a 40× oil-immersion lens and a MicroMAX CCD camera (Roper Scientific; Tucson, Ariz.). CFP (420DF20 excitation, 450DRLP dichroic, 475DF40 emission) and Alexa568 (560DF20 excitation, 585DRLP dichroic, 605DF30 emission) images were collected and analyzed using OpenLab software (Improvision; Lexington, Mass.). Fluorescence images were background-corrected. […] Images were scaled to 16 bits and analyzed in Northern Eclipse (Empix Imaging; Ontario, Canada) with user-written software. […] Results were then calculated in terms of clusters per micrometer of dendrite. For assessment of pre-synaptic terminals, clusters were determined as before and average grey levels of clusters were compared between transfected dendrites and untransfected dendrites within the same field of view. […]

[3] = Thermostability assay of streptavidin tetramer (SDS-PAGE); assay type: physicochemical; conditions: 100° C., 3 min in PBS

Substance	Kd [1] [µM]	AP-neuroligin-1 clusters per micrometer of dendrite [2] [clusters/μm]	fraction remaining tetrameric on heating [3]
D4: Streptavidin tetramer with 4 dead subunits (D: N23A, S27D, S45A, SEQ ID NO:3) [Tetramer D4]	918 ± 0.0117	–	–
A1D3: Monovalent streptavidin tetramer: one His6-tagged wild-type (A) subunit and three dead (D) subunits [Tetramer A1D3]	–	0.087±0.021	significant fraction
